Measured values reported in ChEMBL document CHEMBL5096212, “Development of a water-soluble ryanodine receptor 1 inhibitor” (Bioorg Med Chem, 2022).
Converted amounts (≈) assume the structure as drawn.

What was measured:
[1] = Solubility of the compound in saline measured after 48 hrs by HPLC analysis; format: physicochemical; settings: buffer
[2] = Inhibition of RyR1 R2163C mutant (unknown origin) expressed in HEK293 cells measured every 10s for 300s by R-CEPIA1er based fluorescence analysis; format: cell-based, Homo sapiens
[3] = Solubility of the compound in 30% EtOH/PBS measured after 48 hrs by HPLC analysis; format: physicochemical

SMILES | solubility [1] [µg/mL] | EC50 [2] [nM] | solubility at 48 h [3] [µg/mL]
CCCCCCCn1cc(C(=O)[O-])c(=O)c2cc3c(cc21)OCO3.[Na+] | 3.9 | – | –
CCCCCCn1cc(C(=O)O)c(=O)c2cc3c(cc21)OCO3 | – | 70 | –
CCCCCCCCn1cc(C(=O)O)c(=O)c2c(OC)nccc21 | – | 1700 | –
CCCCCCCn1cc(C(=O)O)c(=O)c2cc3c(cc21)OCO3 | – | 11 | 54 (≈ 163 µM)
CCCCCCCCn1cc(C(=O)[O-])c(=O)c2cc3c(cc21)OCO3.[Na+] | 0.84 | – | –
CCCCCCCCn1cc(C(=O)O)c(=O)c2cnc(OC)cc21 | – | 68 | 414 (≈ 1250 µM)
CCCCCCCCn1cc(C(=O)O)c(=O)c2cc3c(cc21)OCO3 | – | 12 | 4.7 (≈ 13.6 µM)
CCCCCCCCn1cc(C(=O)[O-])c(=O)c2cnc(OC)cc21.[Na+] | 27 | – | –
CCCCCCCn1cc(C(=O)O)c(=O)c2cnc(OC)cc21 | – | 525 | –
